Experimental data taken from US5753681A, “Treatment and prophylaxis of pancreatitis” (Sankyo Company, Limited, priority 1996, dated 1998).

How the values were obtained:
[1] = Histopathology of pancreatic tissue of Example 3: total cross-sectional area and cicatrized area; type: in vivo, male WBN/Kob rats; details: doses of Example 3
Description: The measurement of the cicatrized area may also be carried out by conventional procedures. More specifically, male WBN/Kob rats are used as models of spontaneous chronic pancreatitis and are fed with a powdered feed admixed with a test compound. The pancreas of each animal is then totally enucleated. Its weight is measured and also the cicatrized area is measured relative to the total cross-sectional area of the pancreas tissue sliced by an image analyser.
(§1) The procedure described in Example 2 was repeated, except that the test compound was pioglitazone ("the pioglitazone group"), BRL-49653 ("the BRL-49653 group"), or Compound A ("the Compound A group").
In order to evaluate the results of Example 2 histopathologically, each pancreas used for weight measurement in Example 2 was fixed in 10% neutral formalin. It was then divided into a spleen side half and a duodenum side half, and each half was sliced at 3 mm intervals to provide cross-sectional tissue pieces. All of these tissue pieces were subjected to paraffin sectioning by conventional procedures and then to hematoxylin-eosin staining and Masson's trichrome staining to prepare two tissue preparations, which were used for histopathological examination. The total cross-sectional area of the pancreatic tissue piece on each preparation was measured using an image analyser (SPICCAII, manufactured by Olympus Optical Co., Ltd.).
In addition, the surface area of the zone which had undergone degeneration and necrosis and in which the exocrine pancreatic tissue was replaced with connective tissue (the cicatrized area) was measured using an image analyser.
In order to evaluate the results of Example 3 histopathologically, the total cross-sectional area and cicatrized area of each pancreas whose weight was measured in Example 3 was measured by the procedure described in Example 4.

[2] = Suppression of the decrease in the pancreatic weight in a model of spontaneous chronic pancreatitis; type: in vivo, male WBN/Kob rats; details: in feed: pioglitazone 0.05% (25 mg/kg/day), BRL-49653 0.005% (2.5), Compound A 0.005% (3.0); three months; normal 1152 ± 43, control 680 ± 26; ***p < 0.001 (pioglitazone, BRL-49653), **p < 0.01 (Compound A)
Source text: The test animals were male WBN/Kob rats, which are commonly used as models of spontaneous chronic pancreatitis and suffer pancreatic weight loss and dysfunction of the exocrine pancreatic tissue due to degeneration and necrosis of the pancreatic parenchyma and its replacement by connective tissue [Tsuchitani et al., Laboratory Animals, 19(3), 200-207, (1985)]. Each group of test animals contained 4 animals, and the animals were used for the experiment when they had reached 12 weeks old. The animals were fed with powdered feed F2 mixed with 0.2% of troglitazone for three months. This group is hereinafter referred to as "the treated group". The average dose of the compound during this period was 140 mg/kg/day. Meanwhile, another four rats (control group) were fed with the powdered feed F2 only. After the rats had been fed with the feeds for three months, the pancreas of each animal was totally enucleated and its weight was measured.
as §1

Acute toxicity = type: in vivo, ddY mice (male); details: oral dose of 300 mg/kg or more
Description: Acute toxicity was assayed by conventional procedures. […] At the end of this time, the animals were all alive. When the acute toxicities of Compounds No. 2, 3, 4 and 10 were measured in the same manner, the mice were all alive after an oral dose of 300 mg/kg or more.

[3] = duodenum side, control 5.52 ± 0.86, **p < 0.01 all three
[4] = duodenum side, control 90.3 ± 14.9
[5] = spleen side pancreatic half, control 8.11 ± 0.76, *p < 0.05 pioglitazone, **p < 0.01 Compound A
[6] = spleen side pancreatic half, control 99.3 ± 9.8, **p < 0.01 pioglitazone, *p < 0.05 BRL-49653

SMILES	Cicatrized area in the exocrine pancreatic tissue [1, 3] [mm^2]	Total cross-sectional area of pancreatic tissue piece [1, 4] [mm^2]	Cicatrized area in the exocrine pancreatic tissue [1, 5] [mm^2]	Total cross-sectional area of pancreatic tissue piece [1, 6] [mm^2]	Pancreatic weight [2] [mg]	Survival (acute toxicity) (Acute toxicity)
CN(CCOc1ccc(CC2SC(=O)NC2=O)cc1)c1ccccn1 (stereo not shown) [BRL-49653, 5-[4-{2-[N-Methyl-N-(pyridin-2-yl)amino]ethoxy}benzyl]-thiazolidine-2,4-dione]	1.21 ± 0.40	100.9 ± 2.1	5.40 ± 1.35	147.2 ± 14.2	976 ± 51	–
CC(=NOCCOc1ccc(CC2SC(=O)NC2=O)cc1)c1ccc(-c2ccccn2)cc1 (stereo not shown) [Compound A, 5-(4-{2-[1-(4-2'-pyridylphenyl)ethylideneaminooxy]ethoxy}-benzyl)thiazolidine-2,4-dione]	1.17 ± 0.15	90.3 ± 10.2	2.62 ± 0.51	100.8 ± 12.5	853 ± 44	–
CCc1ccc(CCOc2ccc(CC3SC(=O)NC3=O)cc2)nc1 (stereo not shown) [Pioglitazone, 5-{4-[2-(5-Ethylpyridin-2-yl)ethoxy]benzyl}thiazolidine-2,4-dione]	1.12 ± 0.26	122.0 ± 9.8	4.98 ± 1.03	157.8 ± 16.1	982 ± 52	–
Cc1c(C)c2c(c(C)c1O)CCC(COc1ccc(CC3SC(=O)NC3=O)cc1)O2 (stereo not shown) [compound 2]	–	–	–	–	–	all alive
CC1(COc2ccc(CC3SC(=O)NC3=O)cc2)CCc2cc(O)ccc2O1 (stereo not shown) [compound 3]	–	–	–	–	–	all alive
CC1(COc2ccc(CC3SC(=O)NC3=O)cc2)CCc2cc(O)c(C(C)(C)C)cc2O1 (stereo not shown) [compound 4, 5-[4-(6-Hydroxy-2-methyl-7-t-butylchroman-2-ylmethoxy)benzyl]thiazolidine-2,4-dione]	–	–	–	–	–	all alive
CCOC(=O)Oc1c(C)c(C)c2c(c1C)CCC(C)(COc1ccc(CC3SC(=O)NC3=O)cc1)O2 (stereo not shown) [compound 10, 5-[4-(6-Ethoxycarbonyloxy-2,5,7,8-tetramethylchroman-2-ylmethoxy)benzyl]-thiazolidine-2,4-dione]	–	–	–	–	–	all alive
